Data from PubChem BioAssay (NCI).
Where “and” joins values, the source holds several entries; their conditions need not be identical. Equal entries are not always repeated.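 Protocol summary: plate cells (96-well), add compound at 5 concentrations, incubate 48 h, interpolate endpoints linearly. The concentration for 50% growth inhibition is given as GI50. TGI is the concentration that stops growth completely.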

Experiments:
Experiment in all cases: DTP human tumour cell line panel, 48 h
CAKI-1 renal = test system: CAKI-1 renal
HS 578T breast = test system: HS 578T breast
MALME-3M melanoma = test system: MALME-3M melanoma
NCI-H23 lung = test system: NCI-H23 lung
NCI-H460 lung = test system: NCI-H460 lung
SK-MEL-28 melanoma = test system: SK-MEL-28 melanoma
SK-MEL-5 melanoma = test system: SK-MEL-5 melanoma
SNB-75 CNS = test system: SNB-75 CNS
SR leukemia = test system: SR leukemia
T-47D breast = test system: T-47D breast

Row | Structure (SMILES) | TGI (CAKI-1 renal) | TGI (HS 578T breast) | TGI (MALME-3M melanoma) | TGI (NCI-H23 lung) | TGI (NCI-H460 lung) | TGI (SK-MEL-28 melanoma) | TGI (SK-MEL-5 melanoma) | TGI (SNB-75 CNS) | GI50 (SR leukemia) | TGI (SR leukemia) | TGI (T-47D breast) | GI50 (CAKI-1 renal) | GI50 (HS 578T breast) | GI50 (MALME-3M melanoma) | GI50 (NCI-H23 lung) | GI50 (NCI-H460 lung) | GI50 (SK-MEL-28 melanoma) | GI50 (SK-MEL-5 melanoma) | GI50 (SNB-75 CNS) | GI50 (T-47D breast)
1 | O=C1OC(OC/C(Br)=C(/Br)COC2OC(=O)C(Cl)=C2Cl)C(Cl)=C1Cl (configuration not stated) | 7.68 µM | 64.7 µM | 21.2 µM | 22.5 µM | 39.4 µM | 23.3 µM | 26.8 µM | 36 µM | 1.6 µM | 5.46 µM | 30.8 µM | – | – | – | – | – | – | – | – | –
2 | Cc1ccccc1NC(=O)c1cc2ccccc2cc1O | 5.87 µM | 8.38 µM | 7.29 µM | 6.6 µM | 7.29 µM | > 100 µM | 5.58 µM | 44.9 µM | 4.84 µM | > 100 µM | > 100 µM | 2.01 µM | 3.12 µM | 1.98 µM | 2.36 µM | 2.77 µM | 5.09 µM | 2.38 µM | 2.43 µM | 3.51 µM
3 | CN(C)c1ncnc2c1ccn2C1OC(CO)C(O)C1O (configuration not stated) | > 39.8 µM | 40.2 µM | > 100 µM | > 100 µM | > 100 µM | > 100 µM | > 100 µM | 22.5 µM | 13.8 µM | > 100 µM | 1.61 µM | 1.58 µM | 2.71 µM | 92.6 µM | 5.45 µM | 4.19 µM | > 100 µM | > 100 µM | 1.64 µM | 0.0621 µM
4 | CCc1nc(N)nc(N)c1C#CC(C)c1cc(-c2ccnc(C)c2)c2oc(C)nc2c1 (configuration not stated) | 5.58 µM | 13.9 µM | 14.4 µM | 5.31 µM | 4.26 µM | 14.3 µM | 1.49 µM | 3.78 µM | < 0.0342 µM | > 53.9 µM | 8.5 µM | < 0.0109 µM | 1.5 µM | 2.11 µM | < 0.01 µM | < 0.01 µM | 0.106 µM | < 0.01 µM | 0.278 µM | 0.283 µM
5 | c1ccc2c(CN3CCC(C4CCN(Cc5cccc6ccccc56)CC4)CC3)cccc2c1 | 21.2 µM and > 100 µM | > 100 µM | 4.87 µM and 14.6 µM | > 100 µM | 52.4 µM and 46.8 µM | 2.85 µM and 8.19 µM | 14.2 µM and 9.41 µM | – | 1.47 µM and 10.2 µM | – | 89.1 µM | 3.7 µM and 34.3 µM | – | – | 23.2 µM and > 100 µM | – | 1.48 µM and 3.1 µM | – | 2.77 µM and > 27.7 µM | –
6 | COc1cc(NC(=O)c2cc(O)c(C/C=C(\C)CCC=C(C)C)c(O)c2)cc2c1O[C@]1(C)CC[C@@H](O)C(C)(C)[C@H]1C2 | 11.8 µM | 8.75 µM | 5.39 µM | 12.8 µM | 11.2 µM | 8.25 µM | 2.9 µM | 2.75 µM | 0.418 µM | 4.34 µM | 6.95 µM | 1.53 µM | 0.348 µM | 1.62 µM | 2.38 µM | 1.97 µM | 1.43 µM | 1.34 µM | 0.444 µM | 1.63 µM
7 | COc1ccc2c(c1OC)C(=O)O[C@@H]2[C@H]1c2c(c(Br)c3c(c2OC)OCO3)CCN1C | 37.5 µM | > 100 µM | – | > 100 µM | > 100 µM | > 100 µM | > 100 µM | > 100 µM | 0.918 µM | > 100 µM | > 100 µM | 4.22 µM | 31.4 µM | – | > 100 µM | 3.6 µM | > 100 µM | 4.12 µM | 93.3 µM | 80.5 µM
8 | Cn1ncnc1C1c2n[nH]c(=O)c3cc(F)cc(c23)NC1c1ccc(F)cc1 (configuration not stated) | > 100 µM | > 100 µM | > 100 µM | > 100 µM | > 100 µM | > 100 µM | > 100 µM | > 100 µM | < 0.0265 µM | > 62.5 µM | > 100 µM | 9.37 µM | > 100 µM | > 100 µM | – | 0.193 µM | > 100 µM | > 100 µM | 9.8 µM | > 100 µM
9 | O=[N+]([O-])c1cc2c(ccc3occc32)o1 | 4.57 µM | 70.2 µM | 3.11 µM | 15.6 µM | – | 6.27 µM | 2.54 µM | 53.9 µM | 2 µM | 9.64 µM | > 100 µM | 1.87 µM | 4.29 µM | 1.54 µM | 2.69 µM | – | 2.17 µM | 1.17 µM | 3.08 µM | 41.3 µM
10 | Cc1ccc(-c2c3c(N)c4c(nc3nc3c2c(C)nn3-c2ccccc2)CCC4)cc1 | 16.6 µM | 15.6 µM | 39.1 µM | 40 µM | 4.44 µM | 9.69 µM | 3.31 µM | 6.66 µM | 0.472 µM | 9.61 µM | 5.08 µM | 6.89 µM | 5.03 µM | 18.4 µM | 17.5 µM | 2.02 µM | 4.44 µM | 1.73 µM | 2.07 µM | 2.18 µM
11 | CN(C)N=Nc1nn(C(=O)Nc2ccc(Cc3ccccc3)cc2)c2ccccc12 | > 100 µM | > 100 µM | > 100 µM | > 100 µM | > 100 µM | > 100 µM | 1.09 µM | > 100 µM | > 100 µM | > 100 µM | > 100 µM | 1.12 µM | > 100 µM | 6.6 µM | 7.58 µM | 0.111 µM | – | 0.122 µM | 85.4 µM | 0.0719 µM
12 | COC1OC(C(C)O)C2OC(C)(C)OC12 (configuration not stated) | > 100 µM | > 100 µM | – | > 100 µM | > 100 µM | > 100 µM | > 100 µM | > 100 µM | – | > 100 µM | > 100 µM | – | – | – | – | – | – | – | – | –
13 | Nc1nc(Cl)nc2c1ncn2[C@@H]1O[C@H](COS(N)(=O)=O)[C@@H](O)[C@H]1O | 0.0506 µM | 0.0869 µM and 0.0787 µM | 0.0403 µM and 0.0456 µM | 0.0538 µM and 0.0982 µM | 0.104 µM and 0.108 µM | 0.05 µM and 0.0511 µM | 0.0313 µM and 0.033 µM | 0.0558 µM and 0.0554 µM | 0.00307 µM | 0.0487 µM and 0.0418 µM | 0.0656 µM and 0.0744 µM | 0.0208 µM | 0.0263 µM and 0.0256 µM | 0.0188 µM and 0.0209 µM | 0.021 µM and 0.0288 µM | 0.0306 µM and 0.0305 µM | 0.0201 µM and 0.0208 µM | 0.0168 µM and 0.0179 µM | 0.0202 µM and 0.0209 µM | 0.0156 µM and 0.02 µM
